In patent US11266743B2, “Peptide compositions and methods of use thereof” (priority 2017, dated 2022):
Entries after “also recorded” stand apart in the source; their conditions may differ.

How the values were obtained:
P. aeruginosa [1] = assay: Induced resistance, ten serial passages of broth sterilization assays; assay type: cell-based; conditions: ⅔ serially diluted antibiotics, overnight growth
From the text: Bacterial resistance against peptide antibiotics is known to occur, although it is reportedly more difficult to induce than resistance against conventional antibiotics. P. aeruginosa can gain resistance to some AMPs through selection for a variant with altered outer membrane composition. We used P. aeruginosa in a screen (FIG. 36) to select against rapid resistance. We tested if P. aeruginosa can stably gain resistance to the rationally designed peptides described herein and we compared their ability to adapt to conventional antibiotics under the same conditions. For ten serial passages, we performed broth sterilization assays using ⅔ serially diluted antibiotics with overnight growth. For each passage, we used the bacteria that grew at the highest antibiotic concentration to expand overnight for the subsequent generation. […] All of the conventional antibiotics promoted increasing resistance, and two promoted complete resistance by 10 passages.

[2] = tested on: HeLa, RAW264.7, HepG2, and MCF-7 cells; assay: TAMRA delivery assay (flow cytometry, confocal microscopy); assay type: cell-based; conditions: 0.5 μM CPP-TA + 4.5 μM CPP-C, 30 minutes at 4° C., 22° C., or 37° C.
Description: To determine the effect of the PNA cargo on delivery, we labeled CPPs, lacking the PNA705 cargo, with the fluorophore TAMRA on a C-terminal cysteine residue (CPP-TA) and measured delivery to multiple cell types. TAMRA-labelled CPPs, mixed with unlabeled CPPs at a 1:10 ratio in serum-free DMEM for a final concentration of 5 μM total peptide, was added to HeLa, RAW264.7, HepG2, and MCF-7 cells in 12-well cell culture plates and incubated for 30 minutes at 4° C., 22° C., or 37° C. prior to flow cytometric analysis (FIGS. 9-16). […] Delivery of TAMRA was verified by confocal microscopy for each cell type.
Hela, RAW264.7, HCT116, HepG2, and MCF-7 cells were plated in 12-well plates at 100,000 cells/well. After 24 hours, cells were gently washed in PBS, topped with 500 μl of CPP-TA solution containing 0.5 μM CPP-TA+4.5 uM CPP-C in sfDMEM without phenol red, and incubated for 30 min at either 4° C., 23° C., or 37° C. The incubation solution was aspirated and cells were treated with 100 μl 0.025% Trypsin for 3 minutes at 23° C. 500 μl DMEM containing 2% FBS, 125 nM Sytox Green, and 20 mM HEPES was used to suspend the cells. Cells were transferred to a filter-topped flow cytometry tube and analyzed on a BD™ LSR II flow cytometer. Cells displaying a normal morphology were gated and first analyzed for GFP fluorescence using the 488 nM laser. GFP negative cells were used to generate a histogram of TAMRA fluorescence, measured with the 543 nM laser.
Cells were treated as described above for the TAMRA delivery assay and immediately imaged to avoid artifacts resulting from fixation. The distribution of TAMRA and Sytox Green was analyzed using a confocal scanning Nikon Eclipse Ti2 inverted microscope using a 40× oil-immersion objective. Sytox Green was excited using the 488 nM laser and TAMRA was excited using the 543 nM laser.

[3] = tested on: Hela cells stably transfected with mCherry and GFP1-10; assay: Split GFP assay (GFP-11 delivery); assay type: cell-based; conditions: 40 μM peptide-GFP-11, 37° C.
Description: To test the ability of CPPs to deliver other cargoes, specifically a protease-sensitive peptide cargo, we modified the well-known split-GFP assay. CPPs were tested for the ability to deliver the polar 16-residue GFP-11 peptide across the membrane barrier. This peptide rescues the fluorescence of the cytosolic endogenous, non-fluorescent GFP1-10 protein. Here, we stably transfected Hela cells with a plasmid containing the full length mCherry and the non-fluorescent GFP1-10. Following incubation with CPP-GFP-11 constructs at multiple concentrations and temperatures for 30 minutes in serum free DMEM, cells were analyzed by flow cytometry for mCherry and GFP fluorescence (FIG. 17). Live cells expressing mCherry (˜50% of the total cells) were gated and their GFP fluorescence was analyzed. Unlike the luciferase splice correction assay where a single corrected mRNA transcript serves as template for many molecules of functional luciferase, the split GFP assay is stoichiometric; a single GFP-11 peptide can bind to a single GFP1-10 protein producing a finite fluorescent response.
Hela cells were transfected with p_mCherry-GFP1-10 (Addgene plasmid #78591) using LIPOFECTAMINE® 3000 (ThermoFisher). Single mCherry positive cells were sorted into 96-well plates using a BD™ FACSARIA™ cell sorter and colonies were maintained under G418 selection at […]. Stably transfected cells were plated in 12-well plates at 100,000 cells/well and grown overnight in complete DMEM. Cells were washed in PBS and incubated in 500 μl of CPP-GFP-11 solution at variable concentrations at 23° C. and 37° C. for 30 minutes. The CPP-GFP-11 solution was aspirated and 100 μl of 0.025% trypsin solution was added to each well. After detachment, cells were suspended in 500 μL of PBS+2% FBS and 20 mM HEPES. Cells were analyzed using a BD™ LSRII flow cytometer. Cells displaying a normal morphology were gated and first analyzed for mCherry fluorescence using the 543 nM laser. mCherry+ cells were used to generate a histogram of GFP fluorescence measured with the 488 nM laser.

[4] = tested on: Hela cells stably transfected with mCherry and GFP1-10; assay: Split GFP assay (GFP-11 delivery); assay type: cell-based; conditions: 40 μM peptide-GFP-11, 22° C.
[5] = Safety study of aspirated D-NOGCON; assay type: in vivo, C57BL/6 mice; conditions: aspiration
Description: (§1) The mice were then treated with D-NOGCON (SEQ ID NO:37), which were instilled in the trachea, exactly as described above for the administration of bacterial infection. Before attempting to treat a P. aeruginosa infection of the lung, we sought to establish a safe dose for administration of the D-NOGCON peptide via aspiration. Based on in vitro toxicity data (FIGS. 28D and 28E), a dosing regimen of 50 μL of D-NOGCON (100 μM) was administered every 8 hours for 3 days (9 doses). As a no treatment control, we administered 50 μL of PBS on the same schedule.
To monitor the toxicity we measured animal behavior and body weight changes (FIG. 29A). […] In the second safety trial, we administered 50 μL of D-NOGCON (50 μM) twice daily, for three days and monitored the animals behavior and body weight changes (FIG. 29B).

S. aureus = assay: Radial diffusion in the presence of RBCs; assay type: cell-based; set-up: key: The ↑ represents the improvement in performance that would be desired for a viable in vivo antimicrobial peptide; ↓: The symbol represents a regression in desired behavior; *=p<0.05; **=p<0.01; ***=p<0.001; conditions: change versus parent sequence; paired t-test
Description: Underlay agarose was prepared by adding 5 g of low EEO agarose and 0.03 g of TSB to 500 mL of 10 mM phosphate buffer (pH=7.4). Overlay agarose was prepared by adding 5 g of low EEO agarose and 30 g of TSB to 500 mL of 10 mM phosphate buffer (pH=7.4). Both solutions were heated until the agarose melted and then were autoclaved. To a rectangular, one-well plate, 20 mL of underlay agarose, inoculated with 8×10^6 CFUs of bacteria, was added. A sterile, 96-well plate replicator from Sigma-Aldrich was set in the molten agarose and removed one the agarose solidified. Antibiotic was prepared at 4 times the final desired concentration. For the antibiotic standard, a serial dilution of 3:4 across a 96-well plate was performed followed by 1:4 dilution with PBS. Otherwise, the peptide was diluted to 20 μM with RBCs and/or serum to give between 2% (1×10^8 cells/mL) and 20% (1×10^9 cells/mL). Solutions were incubated with gentle shaking for 30 minutes at 37° C. […]. Overlay was added, and the plate was incubated upside down overnight. Surface growth was cleared, the plates were sterilized with 25% methanol and 5% acetic acid. Zones of inhibition were photographed and analyzed using ImageJ. (FIG. 21)
The engineered peptide sequences and their derivation from parent sequences is shown, along with the underlying hypothesis described for the first set of peptides (Table 4) and the second set (Table 5). We performed statistical testing for performance in antimicrobial assays in the presence and absence of RBCs, as well as for cytotoxicity. The broth dilution results were tested using a two sample t-test (N=6-22). The radial diffusion results were tested using a paired t-test (N=4). The cytotoxicity results were tested using a paired t-test (N=3). The ↑ represents the improvement in performance that would be desired for a viable in vivo antimicrobial peptide. This corresponds to a decrease in MIC values (increased potency) and decreased cytotoxicity. The symbol represents a regression in desired behavior. (*=p<0.05, **=p<0.01, ***=p<0.001).

P. aeruginosa [6] = assay: Deep wound infection with luminescent P. aeruginosa, whole animal imaging; assay type: in vivo, mice
Description: Deep wounds in mice were infected with a luminescent strain of P. aeruginosa and monitored with whole animal imaging (FIGS. 35-37). In FIG. 36 infections are just beginning to become established. Areas of red indicate maximal bacterial colonization. No treatments have occurred. Treatment was twice per day, with 50 μg of D-NOGCON peptide in 20 μL of vehicle (0.025% acetic acid) starting 2 hours after infection. […] In the control animals (FIG. 36A), the infection is fully established across the entire wound bed and saturated the detector (red color). In the treated animals (FIG. 36B) the infection is much smaller in area and much lower in intensity, indicating it is under control.

P. aeruginosa biofilms = assay: Activity against P. aeruginosa biofilms; assay type: cell-based; conditions: 25 μM
Description: Bacterial biofilm formation on implanted medical devices is a serious medical problem because these biofilms can lead to life-threatening systemic infections. We tested selected peptides and rationally designed variants against biofilms formed by P. aeruginosa. […] D-NOGCON reduces viable bacteria by 3.6 logs ( 1/3000 reduction) at 25 μM, while the best conventional antibiotic, Ciprofloxacin, reduced viable bacteria by only 1.7 logs ( 1/55 reduction) at 25 μM.

P. aeruginosa PA01 = assay: Acute pneumonia induced by P. aeruginosa aspiration; assay type: in vivo, C57BL/6 mice
Description: Female C57BL/6 mice, aged five weeks, were obtained from Charles River Laboratories. Upon receipt, they were allowed at least one week to recover from transport and acclimate to the new housing environment. Mice were maintained on a standard chow diet. Experiments were performed with mice no younger than six weeks and no older than nine weeks. P. aeruginosa PA01 was cultured overnight in tryptic soy broth (TSB) at 37° C. and shaken at 220 RPM. Prior to infecting the mice, the overnight culture was diluted 100-fold into 25-mL of fresh TSB. The culture was grown for three hours before optical density was determined. Previous growth curve experiments allowed us to dilute this newly expanded culture to 1.4×10^8 CFU/mL. To infect an animal, mice were anesthetized using isoflurane and 50 μL of bacterial suspension (7×10^6 CFUs) was administered via intratracheal instillation. Briefly, the anesthetized mice were suspended from wire by their front feet and blunt forceps were used to extract the tongue. The tongue was pulled out and downward. The bacterial suspension was deposited in the back of the throat with a micropipette. The nares of the animal were then covered while the mouse recovered from anesthesia. The chest was gently rubbed to promote inhalation. The mice were made to inhale 15 times before the tongue was released and the mouse was removed from the wire. The animals were then allowed a minute to fully awaken and then returned to their cages.
as §1
Our initial experiment was survival-based. We infected 8 mice (4 for treatment, 4 for vehicle) with the above bacterial load in 50 μL of PBS and allowed 2 hours of recovery prior to the initial treatment administration. After the recovery period, dosing proceeded as it had for the second safety study (50 μL, 50 μM, 2× daily). […] At the 24-hour time point, mice from both groups lost ˜12% body weight (FIG. 30A). Between 24 and 48-hour timepoints, 3 controls and 1 treated animal were sacrificed (FIG. 30B). […] Euthanasia is required in these cases because the animals are clearly suffering and are not able to obtain the nutrients required for survival. […] The lungs of 3 animals from each treatment group were removed, homogenized, and plated on PIA plates to determine the P. aeruginosa CFU burden (FIG. 30C).
A third study reduced the CFU burden of P. aeruginosa to 7×10^6 and mice were treated as with the previous experiment. As in the previous experiment, both treated and untreated animals lost 10-12% of their body weight after 24 hours (FIG. 31A). […] What was not taken into consideration in this experiment was the propensity for infection to spread to other tissues.

RRWARLRLVLAY [ARVA]
induction of resistance (P. aeruginosa [1]): promoted total resistance in a few passages

GRKKRRQRRRPPQ [TAT, reference compound]
TAMRA delivery (words, rank order) [2]: CPP-2»CPP-3=CPP-1>CPP-4>TAT=penetratin | mCherry positive cells GFP-11 is delivered to [3]: 21% | mCherry positive cells GFP-11 is delivered to [4]: 7%

RRWARRLAFAFRR [D-NOGCON]
tolerability (behavior and body weight changes) ([5]; 50 μL of 50 μM twice daily for three days): sufficiently safe | tolerability (behavior and body weight changes) ([5]; 50 μL of 100 μM every 8 hours for 3 days): too toxic for the animals to tolerate | Radial Diffusion vs. S. aureus (S. aureus): ↑Radial diffusion vs. | wound infection (luminescence imaging) (P. aeruginosa [6]; after a single day of treatment, 50 μg in 20 μL twice per day starting 2 hours after infection): dramatically reduced compared to the control | integrated luminescence (P. aeruginosa [6]; first 5 days, treated on days 0, 1, and 2): significant protection, slowing of bacterial growth and more rapid clearance over control | summed activity and behavior scores (P. aeruginosa [6]; scale 0 (normal) to 3 each for five items, maximum 15): more normal behavior; also recorded: better summed behavioral scores | reduction of viable bacteria in biofilm (P. aeruginosa biofilms): 3.6 logs | body weight lost (P. aeruginosa PA01; survival study, 24-hour time point, same in vehicle group): ~12% | survival of the initial 24 hours (P. aeruginosa PA01; survival study, 50 μL, 50 μM, 2× daily, first dose 2 hours after infection): All mice from both treatment groups survived | animals sacrificed (P. aeruginosa PA01; survival study, between 24 and 48-hour timepoints, 4 mice per group, 3 controls sacrificed): 1 | body weight lost (P. aeruginosa PA01; survival study, day 3, all animals of both groups): more than 20% | infection titer (P. aeruginosa PA01; survival trial, 50 μL, 50 μM, 2× daily): little improvement in the infection titer | infection titer over control (P. aeruginosa PA01; third experiment, lower CFU burden): little improvement | body weight lost (P. aeruginosa PA01; third study, after 24 hours, same in untreated animals): 10-12% | CFU burden versus untreated (P. aeruginosa PA01; third study, two doses over 24 hours): non-significant increase
